According to ChEMBL document CHEMBL1201862, “PubChem BioAssay data set” (2004):
Blank lines part the entries; values can stand above or below the compound they belong to. The source made the active and inactive calls.

What was measured:
[1] = growth suppression of beta-catenin-knockout colon cells, dose response, cell-based, HCT116, human colon tumor (AID 1045); format: functional;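 note: HCT116 colon tumor cells with beta catenin knocked out; cells exposed to compound for 60 hours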
[2] = HeLa cell cytotoxicity, dose response, cytotoxicity control for MgcRacGAP inhibitor project (AID 624300); format: functional
[3] = growth suppression of PTEN-null colon cells, dose response, cell-based, HCT116 PTEN knockout (AID 1047); format: functional;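 note: HCT116 colon tumor cells with PTEN knocked out; cells exposed to compound for 60 hours before readout; potency for loss of cell viability measured by luminescence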
[4] = target: T1, DNA repair protein RAD52 homolog (Homo sapiens, UniProt P43351); format: functional, biochemical
T1 sequence (P43351 whole entry): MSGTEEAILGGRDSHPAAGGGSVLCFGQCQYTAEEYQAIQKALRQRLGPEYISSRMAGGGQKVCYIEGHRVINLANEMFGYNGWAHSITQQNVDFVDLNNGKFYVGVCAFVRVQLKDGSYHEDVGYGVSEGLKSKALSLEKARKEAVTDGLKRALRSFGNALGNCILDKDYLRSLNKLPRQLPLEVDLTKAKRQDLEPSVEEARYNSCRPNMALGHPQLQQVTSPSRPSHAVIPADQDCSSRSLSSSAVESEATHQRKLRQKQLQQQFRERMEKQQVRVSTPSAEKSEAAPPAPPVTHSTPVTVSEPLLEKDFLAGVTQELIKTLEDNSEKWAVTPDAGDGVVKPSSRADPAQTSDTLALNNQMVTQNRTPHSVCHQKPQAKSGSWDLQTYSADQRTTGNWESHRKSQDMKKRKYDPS

[5] = target: Polyadenylate-binding protein 1 (Homo sapiens, UniProt P11940); test: PABP1 MLLE–PAM2 interaction inhibitors, dose response, miRNA deadenylation inhibitor project, biochemical, fluorescence polarization, Cy5-PAM2 peptide, secondary (AID 602260); format: functional; settings: read-out: IC50_Mean
[6] = target: T2, Protein skinhead-1 (Caenorhabditis elegans, UniProt P34707); format: functional
T2 sequence (P34707 whole entry): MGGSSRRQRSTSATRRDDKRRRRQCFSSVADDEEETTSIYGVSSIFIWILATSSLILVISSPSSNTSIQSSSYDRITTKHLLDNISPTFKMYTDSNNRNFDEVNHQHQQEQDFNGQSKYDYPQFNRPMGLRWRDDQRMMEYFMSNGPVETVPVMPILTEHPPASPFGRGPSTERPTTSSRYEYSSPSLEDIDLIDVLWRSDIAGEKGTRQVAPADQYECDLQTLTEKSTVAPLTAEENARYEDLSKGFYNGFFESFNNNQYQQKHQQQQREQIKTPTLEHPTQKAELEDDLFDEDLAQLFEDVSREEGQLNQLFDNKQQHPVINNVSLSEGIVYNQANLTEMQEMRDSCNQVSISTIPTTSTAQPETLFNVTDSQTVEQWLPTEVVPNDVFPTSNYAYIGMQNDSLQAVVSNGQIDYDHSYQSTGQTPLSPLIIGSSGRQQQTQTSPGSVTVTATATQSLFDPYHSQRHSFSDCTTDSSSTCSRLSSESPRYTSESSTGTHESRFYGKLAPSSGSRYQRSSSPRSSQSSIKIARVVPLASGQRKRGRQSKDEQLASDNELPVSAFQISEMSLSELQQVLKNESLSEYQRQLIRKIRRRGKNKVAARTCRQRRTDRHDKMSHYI

[7] = target: Caspase-9 (Homo sapiens, UniProt P55211); test: caspase-9 enzyme inhibition, dose response, selectivity assay for caspase-6 inhibitor project, biochemical, fluorescence, plate reader, cherry-picked samples (AID 743293)
[8] = target: T3, Caspase-7 (Homo sapiens, UniProt P55210); test: human caspase-7 inhibitors, dose response, selectivity assay for caspase-6 inhibitor project, biochemical, DEVD-R110 fluorescence, cherry-pick (AID 743295)
T3 sequence (P55210 whole entry): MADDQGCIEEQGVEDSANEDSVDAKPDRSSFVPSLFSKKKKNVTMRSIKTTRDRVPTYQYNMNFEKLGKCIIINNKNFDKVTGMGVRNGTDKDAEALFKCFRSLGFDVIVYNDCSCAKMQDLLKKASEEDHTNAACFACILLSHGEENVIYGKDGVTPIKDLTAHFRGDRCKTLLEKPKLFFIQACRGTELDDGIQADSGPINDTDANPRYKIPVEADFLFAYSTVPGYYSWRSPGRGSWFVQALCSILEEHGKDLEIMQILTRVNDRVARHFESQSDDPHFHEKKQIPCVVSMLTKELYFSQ

[9] = target: T4, Caspase-6 (Homo sapiens, UniProt P55212); test: human caspase-6 inhibitors, dose response, biochemical, VEID-R110 fluorescence, cherry-pick (AID 720632)
T4 sequence (P55212 whole entry): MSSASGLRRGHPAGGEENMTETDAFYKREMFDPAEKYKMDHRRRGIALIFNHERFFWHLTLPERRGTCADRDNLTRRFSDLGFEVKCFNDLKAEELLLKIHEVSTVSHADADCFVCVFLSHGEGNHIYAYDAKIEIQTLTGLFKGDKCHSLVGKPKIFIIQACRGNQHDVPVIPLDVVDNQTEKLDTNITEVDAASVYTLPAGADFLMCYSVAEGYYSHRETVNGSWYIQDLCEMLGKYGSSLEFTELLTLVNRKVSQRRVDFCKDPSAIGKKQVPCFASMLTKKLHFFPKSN

[10] = target: Serine/threonine-protein phosphatase (Homo sapiens, UniProt Q9BPW0); test: PP5 phosphatase inhibitors, dose response, biochemical, fluorescence (AID 2395)
[11] = target: T5, Mannose-6-phosphate isomerase (Homo sapiens, UniProt P34949); test: human PMI inhibitors, high substrate, primary screen, biochemical, fluorescence intensity, high mannose 6-phosphate (AID 1220)
T5 sequence (P34949 whole entry): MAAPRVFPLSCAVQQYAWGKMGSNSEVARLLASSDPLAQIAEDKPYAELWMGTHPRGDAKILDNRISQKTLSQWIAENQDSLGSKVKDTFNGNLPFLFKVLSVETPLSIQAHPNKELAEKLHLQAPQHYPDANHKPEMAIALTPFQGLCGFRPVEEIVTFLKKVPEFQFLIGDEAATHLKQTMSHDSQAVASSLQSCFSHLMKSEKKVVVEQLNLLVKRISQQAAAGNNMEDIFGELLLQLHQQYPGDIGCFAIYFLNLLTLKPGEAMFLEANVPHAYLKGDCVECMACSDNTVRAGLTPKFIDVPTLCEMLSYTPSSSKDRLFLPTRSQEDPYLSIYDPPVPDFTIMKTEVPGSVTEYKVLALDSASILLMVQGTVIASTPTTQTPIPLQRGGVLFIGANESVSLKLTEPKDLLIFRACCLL

[12] = target: Ribosomal protein S6 kinase alpha-3 (Homo sapiens, UniProt P51812); format: functional;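 note: measured within a kinome-wide profiling panel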
[13] = target: Proto-oncogene tyrosine-protein kinase receptor Ret (Homo sapiens, UniProt P07949); format: functional;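 note: measured within a kinome-wide profiling panel, RET as the panel member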
Sequence of Proto-oncogene tyrosine-protein kinase receptor Ret (P07949 whole entry): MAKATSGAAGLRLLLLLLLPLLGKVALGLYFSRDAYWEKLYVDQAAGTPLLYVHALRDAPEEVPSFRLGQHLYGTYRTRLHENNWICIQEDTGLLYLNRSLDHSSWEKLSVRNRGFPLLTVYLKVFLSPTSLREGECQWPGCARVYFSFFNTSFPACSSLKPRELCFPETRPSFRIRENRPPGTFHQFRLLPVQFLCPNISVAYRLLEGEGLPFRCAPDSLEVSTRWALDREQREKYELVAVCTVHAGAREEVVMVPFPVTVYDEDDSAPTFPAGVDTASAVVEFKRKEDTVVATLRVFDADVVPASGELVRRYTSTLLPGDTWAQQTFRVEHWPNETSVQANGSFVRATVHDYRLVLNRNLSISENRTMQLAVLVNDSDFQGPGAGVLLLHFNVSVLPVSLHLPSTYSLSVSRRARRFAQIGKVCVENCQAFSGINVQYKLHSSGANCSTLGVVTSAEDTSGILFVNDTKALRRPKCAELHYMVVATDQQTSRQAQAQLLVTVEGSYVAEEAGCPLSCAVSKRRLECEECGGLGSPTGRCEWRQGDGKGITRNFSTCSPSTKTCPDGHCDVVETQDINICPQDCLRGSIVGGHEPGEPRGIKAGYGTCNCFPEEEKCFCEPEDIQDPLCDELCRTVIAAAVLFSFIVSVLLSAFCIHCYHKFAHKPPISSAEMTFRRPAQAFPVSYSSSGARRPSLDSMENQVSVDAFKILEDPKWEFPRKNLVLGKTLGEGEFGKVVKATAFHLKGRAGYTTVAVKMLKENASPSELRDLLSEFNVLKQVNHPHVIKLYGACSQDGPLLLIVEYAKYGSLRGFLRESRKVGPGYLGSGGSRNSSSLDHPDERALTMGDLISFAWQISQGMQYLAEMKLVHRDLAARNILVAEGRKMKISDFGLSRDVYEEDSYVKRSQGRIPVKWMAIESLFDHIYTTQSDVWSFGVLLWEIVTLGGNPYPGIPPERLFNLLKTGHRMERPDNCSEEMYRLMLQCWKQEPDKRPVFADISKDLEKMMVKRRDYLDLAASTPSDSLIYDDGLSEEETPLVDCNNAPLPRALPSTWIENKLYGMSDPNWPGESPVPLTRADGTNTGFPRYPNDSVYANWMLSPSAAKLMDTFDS

Sequence of Polyadenylate-binding protein 1 (P11940 whole entry): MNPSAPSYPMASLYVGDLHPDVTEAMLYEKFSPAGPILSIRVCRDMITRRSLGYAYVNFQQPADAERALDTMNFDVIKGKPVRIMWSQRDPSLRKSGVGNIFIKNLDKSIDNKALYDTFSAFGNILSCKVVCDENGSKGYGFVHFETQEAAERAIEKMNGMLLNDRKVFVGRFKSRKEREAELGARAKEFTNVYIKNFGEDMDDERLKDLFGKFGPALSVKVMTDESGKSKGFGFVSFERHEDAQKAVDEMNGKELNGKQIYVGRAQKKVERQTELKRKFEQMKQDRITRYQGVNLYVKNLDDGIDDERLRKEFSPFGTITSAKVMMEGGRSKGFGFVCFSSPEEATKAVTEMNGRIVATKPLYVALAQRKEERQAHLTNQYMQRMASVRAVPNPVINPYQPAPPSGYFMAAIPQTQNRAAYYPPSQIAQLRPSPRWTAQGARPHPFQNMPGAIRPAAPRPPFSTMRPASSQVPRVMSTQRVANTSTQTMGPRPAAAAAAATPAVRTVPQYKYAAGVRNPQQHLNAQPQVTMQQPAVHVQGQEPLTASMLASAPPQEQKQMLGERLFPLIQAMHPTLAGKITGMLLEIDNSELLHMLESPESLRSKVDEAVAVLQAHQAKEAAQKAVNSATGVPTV
Sequence of Caspase-9 (P55211 1-315 limits assumed): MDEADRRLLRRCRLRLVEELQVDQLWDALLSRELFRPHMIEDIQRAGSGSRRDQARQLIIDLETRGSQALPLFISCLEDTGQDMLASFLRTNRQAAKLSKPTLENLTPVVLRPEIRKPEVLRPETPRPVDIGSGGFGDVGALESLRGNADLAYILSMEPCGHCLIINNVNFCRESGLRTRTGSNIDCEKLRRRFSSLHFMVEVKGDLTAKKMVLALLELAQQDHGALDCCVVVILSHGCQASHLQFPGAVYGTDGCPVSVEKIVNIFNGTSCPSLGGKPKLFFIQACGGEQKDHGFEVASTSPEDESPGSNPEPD
Sequence of Caspase-9 (P55211 331-416 limits assumed): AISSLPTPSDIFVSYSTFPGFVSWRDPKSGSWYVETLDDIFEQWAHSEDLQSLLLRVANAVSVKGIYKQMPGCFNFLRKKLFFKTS
Sequence of Ribosomal protein S6 kinase alpha-3 (P51812 whole entry): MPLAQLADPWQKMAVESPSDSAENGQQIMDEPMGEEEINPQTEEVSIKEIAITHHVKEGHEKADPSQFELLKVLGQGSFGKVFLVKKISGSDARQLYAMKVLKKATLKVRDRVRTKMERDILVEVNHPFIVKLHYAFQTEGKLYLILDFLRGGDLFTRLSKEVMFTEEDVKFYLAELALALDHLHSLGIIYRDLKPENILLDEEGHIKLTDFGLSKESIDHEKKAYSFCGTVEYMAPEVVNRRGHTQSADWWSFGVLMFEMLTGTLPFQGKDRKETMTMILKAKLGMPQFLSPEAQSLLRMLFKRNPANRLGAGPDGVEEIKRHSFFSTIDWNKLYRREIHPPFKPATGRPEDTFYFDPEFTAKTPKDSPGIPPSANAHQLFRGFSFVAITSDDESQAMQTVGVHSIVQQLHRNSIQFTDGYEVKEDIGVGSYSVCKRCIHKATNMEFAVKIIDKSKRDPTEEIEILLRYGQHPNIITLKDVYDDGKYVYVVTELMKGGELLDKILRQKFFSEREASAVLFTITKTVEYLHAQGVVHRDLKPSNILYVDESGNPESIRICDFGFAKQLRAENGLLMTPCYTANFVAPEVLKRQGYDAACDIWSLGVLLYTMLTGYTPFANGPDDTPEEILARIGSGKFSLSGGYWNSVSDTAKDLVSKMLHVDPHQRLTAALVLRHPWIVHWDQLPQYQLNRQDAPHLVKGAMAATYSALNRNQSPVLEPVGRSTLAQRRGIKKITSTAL
Sequence of Serine/threonine-protein phosphatase (Q9BPW0 whole entry): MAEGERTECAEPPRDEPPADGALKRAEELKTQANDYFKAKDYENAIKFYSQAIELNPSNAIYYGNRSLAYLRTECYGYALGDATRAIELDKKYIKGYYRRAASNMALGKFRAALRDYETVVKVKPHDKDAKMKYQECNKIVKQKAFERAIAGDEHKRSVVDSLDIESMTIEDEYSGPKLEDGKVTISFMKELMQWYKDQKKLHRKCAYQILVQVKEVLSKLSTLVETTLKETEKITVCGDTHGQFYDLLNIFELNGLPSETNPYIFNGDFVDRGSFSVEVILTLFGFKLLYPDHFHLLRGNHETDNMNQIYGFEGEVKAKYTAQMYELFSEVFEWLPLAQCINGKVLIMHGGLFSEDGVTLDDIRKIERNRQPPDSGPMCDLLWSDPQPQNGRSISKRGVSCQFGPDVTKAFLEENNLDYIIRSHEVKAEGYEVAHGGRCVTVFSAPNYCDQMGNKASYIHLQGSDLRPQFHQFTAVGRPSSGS

Structure (SMILES): CCN(CC)CCOc1ccc2c(c1)C(=NNC(=O)c1ccccn1)c1cc(OCCN(CC)CC)ccc1-2
EC50 [1]: 2.17 µM (active)
CC50 [2]: 31.7 µM (active)
EC50 [3]: 3.25 µM (active)
AC50 [4]: < 0.15 µM (active)

Structure (SMILES): O=C(O)c1ccc2c(c1)[C@@H]1C=CC[C@@H]1[C@H](c1ccccn1)N2
IC50 [5]: > 66 µM (inactive)
IC50 [6]: > 100 µM (inactive)

Structure (SMILES): Oc1nc(Nc2ccc(F)cc2)cc2ccccc12
AC50 [7]: 3.04 µM (active)
AC50 [8]: 2.11 µM (active)
AC50 [9]: 0.942 µM (active)

Second part, the compound after the results:

IC50 [10]: 6.1 µM (active)
IC50 [11]: > 50 µM (not active)
Structure (SMILES): CN(C)c1cc(N/N=C\c2ccccc2)nc(N(C)C)n1

Ki [12]: 0.0316 µM (active)
Structure (SMILES): O=C1Nc2cc(-c3ccc(O)cc3)ccc2C1=Cc1ccc[nH]1

Ki [13]: 0.00501 µM (active)
Structure (SMILES): NC(COc1cncc(-c2ccc3c(c2)C(=Cc2ccc[nH]2)C(=O)N3)c1)Cc1ccccc1 (stereo not drawn)
